Reference: patent publication US20100197650A1, “COMPOSITIONS AND METHODS OF TREATMENT COMPRISING CEFTAROLINE” (FOREST LABORATORIES HOLDINGS LTD., priority 2008, published 2010)
In brackets after ≈: the same amount, converted by molar mass. Read-outs that look alike come from different tables or passages of the source.

Columns and labels:
[1] = tested on: HA-MRSA; assay: Susceptibility testing MIC/MBC, broth microdilution (Example 3); format: cell-based, Staphylococcus aureus; conditions: for MIC: read-out: MIC; for MIC50: read-out: MIC50
Method: Two hundred clinical HA-MRSA isolates, harboring the SCCmecIV type, were evaluated for susceptibility testing. […] Four strains, including 1 hVISA and 1 VISA, characterized by population analysis profile and Macro Etest were selected for time-kill analysis.
Trypose soy agar (TSA; Difco, Detroit, Mich.) was used for colony counting.
Minimum inhibitory concentrations (MIC) and minimum bactericidal concentrations (MBC) were determined by broth microdilution for all antimicrobials, according to the Clinical and Laboratory Standards Institute (CLSI) guidelines (Clinical and Laboratory Standards Institute. 2006. Methods for Dilution Antimicrobial Susceptibility Tests for Bacteria That Grow Aerobically; Approved Standard. 7th ed. Wayne, Pa.: CLSI). MBC values were determined by plating of aliquots of 5 μL from clear wells onto TSA. All susceptibility testing were performed in duplicate.

[2] = tested on: clinical Enterobacteriacae and P. aeruginosa isolates; assay: Susceptibility testing (Example 2), summary over species; format: cell-based; conditions: selected clinical isolates, except for 4 E. cloacae
[3] = tested on: Enterococcus faecalis; assay: MIC, broth microdilution (Example 1); format: cell-based
How it was run: (§1)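 Broth microdilution per CLSI M7-A7; H. influenzae in Haemophilus Test Medium, streptococci in Mueller Hinton II Broth with 2% lysed horse blood, other organisms in Mueller Hinton II Broth. Two-fold serial dilutions; plates incubated 35° C ~20 hours, MIC read visually as growth/no-growth.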

[4] = tested on: Klebsiella pneumoniae; assay: MIC, broth microdilution (Example 1); format: cell-based
How it was run: (§2)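 CLSI broth microdilution with seven 2-fold dilutions per agent made in DMSO, the drug making up 5% of final well volume. H. influenzae was tested in Haemophilus Test Medium, S. pneumoniae in Mueller Hinton II broth with 2% lysed horse blood, and the others in Mueller Hinton II broth. Incubation was 35 °C for about 20 h, with visual reading.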

[5] = tested on: Haemophilus influenzae; assay: MIC, broth microdilution (Example 1); format: cell-based
How it was run: as §2

[6] = tested on: Pseudomonas aeruginosa; assay: MIC, broth microdilution (Example 1); format: cell-based
How it was run: as §2

[7] = tested on: Streptococcus pneumoniae; assay: MIC, broth microdilution (Example 1); format: cell-based; conditions: Streptococcus pneumoniae, read-out: MIC
How it was run: as §2

[8] = tested on: Acinetobacter baumannii; assay: MIC, broth microdilution (Example 1); format: cell-based
How it was run: as §1

[9] = HA-MRSA isolates of origin Blood
[10] = HA-MRSA isolates of origin Lung
[11] = HA-MRSA isolates of origin Skin
[12] = HA-MRSA isolates of origin Unknown
[13] = HA-MRSA isolates of origin Urine

CCO/N=C(\C(=O)N[C@@H]1C(=O)N2C(C(=O)[O-])=C(Sc3nc(-c4cc[n+](C)cc4)cs3)CS[C@H]12)c1nsc(N)n1 [Ceftaroline]
% of Isolates with MBC 0.5 μg/mL ([1]; 200 HA-MRSA isolates): 22% | % of Isolates with MBC 1 μg/mL ([1]; 200 HA-MRSA isolates): 62.5% | % of Isolates with MBC 2 μg/mL ([1]; 200 HA-MRSA isolates): 15.5% | % of Isolates with MIC 0.25 μg/mL ([1]; 200 HA-MRSA isolates): 4% | % of Isolates with MIC 0.5 μg/mL ([1]; 200 HA-MRSA isolates): 35.5% | % of Isolates with MIC 1 μg/mL ([1]; 200 HA-MRSA isolates): 57% | % of Isolates with MIC 2 μg/mL ([1]; 200 HA-MRSA isolates): 1.5% | MBC range ([1]; 200 HA-MRSA isolates): 0.5 to 2 µg/mL | MIC range ([1]; 200 HA-MRSA isolates): 0.25 to 2 µg/mL | MBC range [1, 9]: 0.5 to 2 µg/mL | MIC range [1, 9]: 0.25 to 2 µg/mL | MBC range [1, 10]: 0.5 to 2 µg/mL | MIC range [1, 10]: 0.25 to 2 µg/mL | MBC range [1, 11]: 0.5 to 2 µg/mL | MIC range [1, 11]: 0.5 to 2 µg/mL | MBC range [1, 12]: 0.5 to 2 µg/mL | MIC range [1, 12]: 0.5 to 1 µg/mL | MBC range [1, 13]: 0.5 to 2 µg/mL | MIC range [1, 13]: 0.5 to 1 µg/mL | MBC ([1]; Staphylococcus aureus, MRSA / VISA, HA-MRSA isolate R2303 (VISA), read-out: MBC): 0.25 µg/mL (≈ 0.413 µM) | MIC ([1]; Staphylococcus aureus, MRSA / VISA, HA-MRSA isolate R2303 (VISA)): 0.25 µg/mL (≈ 0.413 µM) | MIC50 ([1]; Staphylococcus aureus, MRSA, 200 HA-MRSA isolates): 1 µg/mL (≈ 1.65 µM) | MBC ([1]; Staphylococcus aureus, MRSA, HA-MRSA isolate R3804, read-out: MBC): 0.25 µg/mL (≈ 0.413 µM) | MIC ([1]; Staphylococcus aureus, MRSA, HA-MRSA isolate R3804): 0.25 µg/mL (≈ 0.413 µM) | MBC ([1]; Staphylococcus aureus, MRSA, HA-MRSA isolate R3875 (hVISA), read-out: MBC): 1 µg/mL (≈ 1.65 µM) | MIC ([1]; Staphylococcus aureus, MRSA, HA-MRSA isolate R3875 (hVISA)): 1 µg/mL (≈ 1.65 µM) | MBC ([1]; Staphylococcus aureus, MRSA, HA-MRSA isolate R4039, read-out: MBC): 0.5 µg/mL (≈ 0.827 µM) | MIC ([1]; Staphylococcus aureus, MRSA, HA-MRSA isolate R4039): 0.5 µg/mL (≈ 0.827 µM) | MBC ([1]; Staphylococcus aureus, MRSA, HA-MRSA isolates of origin Blood, read-out: MBC50): 1 µg/mL (≈ 1.65 µM) | MIC50 ([1]; Staphylococcus aureus, MRSA, HA-MRSA isolates of origin Blood): 1 µg/mL (≈ 1.65 µM) | MBC ([1]; Staphylococcus aureus, MRSA, HA-MRSA isolates of origin Lung, read-out: MBC50): 1 µg/mL (≈ 1.65 µM) | MIC50 ([1]; Staphylococcus aureus, MRSA, HA-MRSA isolates of origin Lung): 1 µg/mL (≈ 1.65 µM) | MBC ([1]; Staphylococcus aureus, MRSA, HA-MRSA isolates of origin Skin, read-out: MBC50): 1 µg/mL (≈ 1.65 µM) | MIC50 ([1]; Staphylococcus aureus, MRSA, HA-MRSA isolates of origin Skin): 1 µg/mL (≈ 1.65 µM) | MBC ([1]; Staphylococcus aureus, MRSA, HA-MRSA isolates of origin Unknown, read-out: MBC50): 1 µg/mL (≈ 1.65 µM) | MIC50 ([1]; Staphylococcus aureus, MRSA, HA-MRSA isolates of origin Unknown): 1 µg/mL (≈ 1.65 µM) | MBC ([1]; Staphylococcus aureus, MRSA, HA-MRSA isolates of origin Urine, read-out: MBC50): 1 µg/mL (≈ 1.65 µM) | MIC50 ([1]; Staphylococcus aureus, MRSA, HA-MRSA isolates of origin Urine): 0.5 µg/mL (≈ 0.827 µM) | MIC90 ([1]; Staphylococcus aureus, 200 HA-MRSA isolates, read-out: MIC90): 1 µg/mL (≈ 1.65 µM) | MIC range [2]: 2 to 1024 µg/mL | MIC ([3]; E. faecalis 0796 (VSE)): 4 µg/mL | MIC ([3]; Enterococcus faecalis, E. faecalis 0795 (VSE), read-out: MIC): 8 µg/mL | MIC ([3]; Enterococcus faecalis, E. faecalis 0796 (VSE), read-out: MIC): 2 µg/mL | MIC ([3]; Enterococcus faecalis, VRE, E. faecalis 0847 (VRE), read-out: MIC): 2 µg/mL | MIC ([3]; Enterococcus faecalis, VRE, E. faecalis 0849 (VRE), read-out: MIC): 4 µg/mL | MIC ([4]; K. pneumoniae 1461): 0.5 µg/mL | MIC ([4]; Klebsiella pneumoniae, K. pneumoniae 1340, read-out: MIC): 0.12 µg/mL | MIC ([4]; Klebsiella pneumoniae, K. pneumoniae 1461, read-out: MIC): 0.25 µg/mL | MIC ([4]; Klebsiella pneumoniae, K. pneumoniae 1468 (ESBL), read-out: MIC): 32 µg/mL | MIC ([5]; H. influenzae 1224): 0.12 µg/mL | MIC ([5]; H. influenzae 2797 (BLNAR)): 0.12 µg/mL | MIC ([5]; Haemophilus influenzae, H. influenzae 1224, read-out: MIC): 0.06 µg/mL | MIC ([5]; Haemophilus influenzae, H. influenzae 2797 (BLNAR), read-out: MIC): 0.06 µg/mL | MIC ([5]; Haemophilus influenzae, H. influenzae 2798 (BLNAR), read-out: MIC): 0.03 µg/mL | MIC ([5]; Haemophilus influenzae, H. influenzae 2799 (BLNAR), read-out: MIC): 0.03 µg/mL | MIC ([6]; P. aeruginosa 2555): 32 µg/mL | MIC ([6]; P. aeruginosa 2559): 16 µg/mL | MIC ([7]; PRSP, S. pneumoniae 0876 (PRSP)): 0.12 µg/mL | MIC ([7]; PRSP, S. pneumoniae 0877 (PRSP)): 0.12 µg/mL | MIC ([7]; PRSP, S. pneumoniae 0880 (PRSP)): 0.12 µg/mL | MIC ([7]; PRSP, S. pneumoniae 0884 (PRSP)): 0.12 µg/mL | MIC ([7]; S. pneumoniae 0869 (PSSP)): 0.008 µg/mL | MIC ([8]; A. baumannii 2602): 2 µg/mL | MIC ([8]; Acinetobacter baumannii, A. baumannii 2601, read-out: MIC): 2 µg/mL
